For experiment [1], the target named is T1, Neutrophil elastase (Homo sapiens) (UniProt P08246).
T1 sequence (whole entry): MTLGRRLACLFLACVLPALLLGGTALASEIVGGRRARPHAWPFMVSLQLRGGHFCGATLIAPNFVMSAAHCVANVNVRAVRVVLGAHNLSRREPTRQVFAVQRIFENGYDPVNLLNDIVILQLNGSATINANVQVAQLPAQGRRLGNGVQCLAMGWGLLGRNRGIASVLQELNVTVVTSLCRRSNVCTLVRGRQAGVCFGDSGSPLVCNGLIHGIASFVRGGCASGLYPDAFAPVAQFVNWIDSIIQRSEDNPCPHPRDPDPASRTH
Nature of the experiment: Irreversible inhibitory activity against human leukocyte elastase.

Experiment [2] concerns the target T2, Chymotrypsin-like elastase family member 2A (Sus scrofa) (UniProt P08419).
T2 sequence (whole entry): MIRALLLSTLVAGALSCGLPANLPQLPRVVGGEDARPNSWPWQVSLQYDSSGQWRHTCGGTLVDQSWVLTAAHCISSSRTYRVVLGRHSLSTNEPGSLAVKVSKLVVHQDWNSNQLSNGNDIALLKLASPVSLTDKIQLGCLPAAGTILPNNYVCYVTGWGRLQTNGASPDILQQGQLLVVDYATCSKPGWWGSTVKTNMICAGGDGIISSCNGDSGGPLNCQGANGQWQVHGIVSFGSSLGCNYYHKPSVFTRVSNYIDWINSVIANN
In words: Irreversible inhibitory activity against porcine pancreatic elastase.

For `COC(=O)CCC(=O)N[C@@H](C)C(=O)N[C@@H](C)C(=O)N1CCC[C@@H]1C(=O)N[C@H](C(=O)CCl)C(C)C`, the k on in experiment [1] came out at 3150 M⁻¹ s⁻¹; in experiment [2] it was 830 M⁻¹ s⁻¹.

The values are drawn from ChEMBL document CHEMBL1151055, “A comparative SAR and computer modeling study of benzisothiazolone, mechanism-based inhibitors with porcine pancreatic and human leukocyte elastase” (Bioorg Med Chem Lett, 1996).
